Laboratory results taken from US20250205221A1, “MUSCLE RELAXANT” (priority 2022, published 2025).

Assays:
[1] = tested on: twitch response of the gastrocnemius muscle; experiment: Evaluation of neuromuscular blocking effect (time to complete recovery of twitch response); assay type: in vivo, Male Sprague Dawley rats; conditions: for time until the muscle contraction (twitch response) was completely recovered: rats under isoflurane, dose inducing 95-99.9% neuromuscular block (ED95-99.9) via right jugular vein, sciatic nerve stimulation 0.1 Hz; for duration of action relative to succinylcholine: rats, doses inducing 95-99.9% neuromuscular block
Method: Male Sprague Dawley rats (about 300 g body weight) were used in the experiment. Anesthesia was first induced by 4 to 5% isoflurane inhalation and then maintained by 2 to 3% isoflurane inhalation. A warming system was used to keep the body temperature at 36 to 37° C. Lidocaine was infiltrated into the incision site. Tracheostomy was performed and a 16G catheter was inserted to secure the airway. The animals were ventilated by isoflurane and oxygen inhalation using a rodent ventilator at a tidal volume of 10 mL/kg and a respiratory rate of 70/min. A […] catheter was indwelled in the right jugular vein for drug administration. A small slide electrode was attached to the sciatic nerve, and supramaximal stimulation was applied at a frequency of 0.1 Hz and a pulse width of 0.2 ms using an electrostimulator. Using a force transducer, the twitch response of the gastrocnemius muscle was captured, amplified, and recorded. After the amplitude of the twitch response stabilized, a dose of succinylcholine or the JH-cpd series (JH013, JH014) inducing 95-99.9% neuromuscular block was administered, and the time until the muscle contraction (twitch response) was completely recovered was measured.

[2] = reported in Non-Patent Document 1; cited from earlier work

| Compound | time until the muscle contraction (twitch response) was completely recovered [1] [min] | duration of action relative to succinylcholine [1] | duration of action at clinical doses [2] |
| --- | --- | --- | --- |
| COc1ccc(CC2c3cc(OC)c(OC)cc3CC[N+]2(C)CCCOC(=O)/C=C/C(=O)OCC[N+](C)(C)C)cc1OC (stereo not drawn) [JH013] | 5.5 | approximately half | – |
| COc1ccc(CC2c3cc(OC)c(OC)cc3CC[N+]2(C)CCOC(=O)/C=C/C(=O)OCC[N+](C)(C)C)cc1OC (stereo not drawn) [JH014] | 7.5 | approximately two-thirds | – |
| C[N+](C)(C)CCOC(=O)CCC(=O)OCC[N+](C)(C)C [succinylcholine, reference compound] | 11 | – | approximately 10 minutes |
